We go through four compounds from patent US20090082258A1, “Means and Methods for Treating Advanced Stage Neuroblastoma” (priority 2005, published 2009).

Data set [1] relates to SH-EP neuroblastoma cells. The data set is described as follows: Proliferation of SH-EP neuroblastoma cells. Format: cell-based. The note with it: 10 to 20 nM. The procedure:
(§1) FIG. 2: Influence of HC-Toxin upon proliferation, cell cycle, and apoptosis of SH-EP neuroblastoma cells.
(§2) 5×10*4 SH-EP neuroblastoma cells were cultured in RPMI 1640 medium (including 10% FBS, 1% Pen/Strep). After 24 hours of culture, the cells were treated up to 96 h with 10 to 20 nM HC-Toxin or, as solvent control, with methanol (MeOH) at 37° C., 5% CO2. The morphological changes of the cells were investigated using phase contrast microscopy. After 36 h of treatment, neurite outgrowth was observed. After 72 h of treatment, said neurite outgrowth reached its maximum and was constant if treatment was prolonged (not shown). […] More than 95% of the SH-EP neuroblastoma cells differentiate morphologically when treated with 15 nM HC-Toxin (see FIG. 1c).
(§3) An increase in apoptotic cells from 5% to 20% was observed after 48 h to 72 h of HC-toxin treatment in a dose dependent manner (FIG. 2c).

Data set [2] deals with primary skin fibroblasts. Nature of the data set: Proliferation of primary non-transformed skin fibroblasts. Format: cell-based, human. The note with it: 10-20 nM, same conditions as SH-EP. The procedure: (§4) FIG. 3: Influence of HC-Toxin upon proliferation and cell cycle of primary non-transformed skin fibroblasts.
(§5) In order to determine the effects of HC-Toxin on “normal” body cells, primary skin fibroblasts were treated under the same conditions.

For data set [3], the system named is MYCN amplified neuroblastoma cells (Be(2)-C). The data set is described as follows: Proliferation of MYCN amplified neuroblastoma cells Be(2)-C. Format: cell-based. The note with it: stronger inhibition than in SH-EP. As to the method:
(§6) FIG. 4: Influence of HC-Toxin upon the proliferation of MYCN amplified neuroblastoma cells and cells, which overexpress MYCN. (a) BE(2)-C neuroblastoma cells, (b) WAC2 neuroblastoma cells, and (c) Tet21N neuroblastoma cells.
(§7) MYCN amplified neuroblastoma cells (Be(2)-C), MYCN stably transfected SH-EP-neuroblastoma cells (WAC2) as well as SH-EP cells having an tetracycline inducible MYCN (Tet21N) were treated by HC-Toxin.

Data set [4] deals with SH-EP neuroblastoma cells. Nature of the data set: Apoptosis of SH-EP neuroblastoma cells. Format: cell-based. The note with it: FIG. 2c. As to the method:
as §1, §3

For data set [5], the system named is nuclear histone deacetylases. The data set is described as follows: Accumulation of acetylated histone H4 in SH-EP cells (Western blot). Format: cell-based. As to conditions: 6 h, 15 mM HC-Toxin [sic]. The procedure:
The cells were treated for 6 hours with HC-toxin or the indicated histone deacetylase inhibitors as well as all-trans retinoic acid. Whole-cell extracts were obtained and subjected to Western-Blot analysis using an antibody, which specifically recognizes acetylated histone H4 (H4 Acetyl).
SH-EP-neuroblastoma cells were treated with […] HC-Toxin for 6 h. Subsequently, accumulation of acetylated histone H4 was investigated.

Data set [6] has as its system primary skin fibroblasts. The data set is described as follows: Cell cycle of primary non-transformed skin fibroblasts. Format: cell-based, human. As to conditions: 15 nM vs methanol control. As to the method:
as §4, §5

Data set [7] concerns MYCN stably transfected SH-EP-neuroblastoma cells (WAC2). Nature of the data set: Proliferation of MYCN stably transfected SH-EP neuroblastoma cells WAC2. Format: cell-based. As to conditions: stronger inhibition than in SH-EP. As to the method:
as §6, §7

For data set [8], the system named is SH-EP neuroblastoma cells. Nature of the data set: Neuronal differentiation of SH-EP neuroblastoma cells (phase contrast microscopy, immunocytochemistry). Format: cell-based. The procedure:
FIG. 1: HC-Toxin induces neuronal differentiation in SH-EP MYCN-single copy neuroblastoma cells. Cells with neurites longer than twice the diameter of the cell body have been deemed as differentiated cells.
as §2

The test system of data set [9] is SH-EP cells having an tetracycline inducible MYCN (Tet21N). The data set is described as follows: Proliferation of SH-EP cells with tetracycline inducible MYCN (Tet21N). In kind it is cell-based. The note with it: stronger inhibition than in SH-EP. As to the method: as §6, §7
The test system of data set [10] is SH-EP neuroblastoma cells. Nature of the data set: Cell cycle of SH-EP neuroblastoma cells. In kind it is cell-based. As to conditions: 15 nM vs control cells. The procedure:
as §1, §3

For data set [11], the system named is various tumour cells. Nature of the data set: Antitumoral effects in tumour cells, general statements and comparison with other agents. In kind it is cell-based. The note with it: higher concentration. The procedure:
The differentiation inducing agent all-trans retinoic acid has to be administered in a 1000-fold higher concentration compared to HC-toxin, acts differently as compared with compounds of the general formula (I) and causes side effects known as the retinoic acid syndrome.
The compounds having a structure as shown in the general formula (I) elicit the aforementioned antitumoral effects in an extremely low dosage already, i.e. at nanomolar concentrations (5-20 nM), in various tumour cells. The mode of action of the compounds apparently encompasses inhibition of histone deacetylases. This finding is supported by the observation that treatment of MYCN single copy and amplified neuroblastoma cells with a compound of the present invention in nanomolar concentration (e.g. 15 nM) leads to the accumulation of acetylated H4-histones within one to six hours being an indicator for a histone deacetylase inhibitor.

Data set [12] deals with various tumour cells. As to conditions: cited from earlier work.

Entries after “also recorded” stand apart in the source; their conditions may differ.

`CC1NC(=O)C(C)NC(=O)C2CCCN2C(=O)C(CCCCCC(=O)C2CO2)NC1=O` (stereo not drawn) [HC-Toxin, Helminthosporium carbonum toxin]: in data set [1], the “inhibition of SH-EP neuroblastoma cell proliferation” value was “inhibits cell proliferation in a concentration dependent manner; also recorded: concentration-dependent inhibition”. For the same compound, the “proliferation of primary skin fibroblasts” value with primary skin fibroblasts [2] was “No significant changes”; with primary skin fibroblasts [2] (listed as HC-toxin), “has no influence upon the proliferation”. Besides, the “inhibition of proliferation of Be(2)-C cells” value in data set [3] was “efficiently inhibits proliferation”. In addition, the “induction of apoptosis in SH-EP cells” value in data set [4] is listed as “induces apoptosis in a concentration dependent manner”. The “accumulation of acetylated histone H4” value in [5] is recorded as “induces hyperacetylation of histone H4”; in [5] (listed as iHC-Toxin), “induce accumulation of acetylated histone H4”. For the same compound, the “cell cycle of primary skin fibroblasts” value with primary skin fibroblasts [6] was “does not alter the cell cycle; also recorded: No significant changes”. Further, the “inhibition of proliferation of WAC2 cells” value in [7] is “efficiently inhibits proliferation”. In [8] (15 nM HC-Toxin, neurites longer than twice the diameter of the cell body), the “SH-EP neuroblastoma cells that differentiate morphologically” value is reported as “More than 95%”. Also, the “time of treatment after which neurite outgrowth reached its maximum” value in data set [8] (10 to 20 nM, SH-EP cells) was 72 h. In [8] (10 to 20 nM, SH-EP cells), the “time of treatment after which neurite outgrowth was observed” value is listed as 36 h. Also, the “inhibition of proliferation of Tet21N cells” value in data set [9] is given as “efficiently inhibits proliferation”. Moreover, the “cell cycle distribution of SH-EP cells” value in data set [10] is “accumulation of the HC-Toxin treated cells in the G0/1 phase”.
For the compound `CC1=C(/C=C/C(C)=C/C=C/C(C)=C/C(=O)O)C(C)(C)CCC1` [all-trans retinoic acid, reference compound], the “concentration to be administered compared to HC-toxin” value in the data set on various tumour cells [11] is on record as 1000 fold. Also, the “accumulation of acetylated histone H4” value in data set [5] is on record as “no induction of hyperacetylation of histone H4”.
Consider `CC(/C=C/C(=O)NO)=C\[C@@H](C)C(=O)c1ccc(N(C)C)cc1` [trichostatin A], for which, in the data set with various tumour cells [12], the cytotoxic effects entry was “strong cytotoxic effects”.
Consider `CCCC(CCC)C(=O)O` [valproic acid], for which, in the data set with various tumour cells [12] (not achievable in vivo), the efficient concentration result is “only efficient in millimolar concentrations”.
